The nature of series [1]: Pharmacokinetic study in rat models (single dose, infusion). Format: in vivo. Particulars: 15 mg/kg, infusion time 1 h. From the text: 5. […] Thus, vancomycin was available for a prolonged period and less frequent administration is enabled.
Series [2] concerns rats. The experiment in a line: Urinary biomarkers of renal damage (KIM-1, clusterin, osteopontin) in the rat toxicity study. Format: in vivo. As to conditions: 150 mg/kg daily for 5 days, FIG. 8. As for the experimental part: (§1) To evaluate toxicity of the liposomal formulations, rats were dosed daily with 150 mg/kg test formulation for 5 days, which is about 10-fold of a dose for human administration (typically 1 g).
(§2) The endpoints for renal damage were urinary biomarkers (KIM-1, Clusterin, Osteopontin), a plasma biomarker (creatinine), and histopathology findings for the kidney. Here, blood sampling was performed at a total volume of 2 mL and clinical chemistry samples were drawn pre-dosing, day 3, and day 5 (0.25 mL each), and pharmacokinetic samples were drawn on Day 1 (4 samples of 0.125 mL), Day 3 (4 samples of 0.125 mL), and Day 5 (2 samples of 0.125 mL). For each animal, at euthanasia, kidneys were formalin fixed and flash frozen in liquid nitrogen. Samples were analyzed for histopathological grading using standard procedures well known in the art.
Further exemplary results are shown for selected urinary markers in FIG. 8. Here, the markers included KIM-1, clusterin, and osteopontin (OPN). […] On the other hand, the markers remained substantially unchanged or only moderately elevated over control in both treatment groups where liposomal compositions according to the inventive subject matter were used.

Series [3] relates to rats. Nature of the series: Kidney histopathology in the rat toxicity study. Format: in vivo. Particulars: 150 mg/kg daily for 5 days. As for the experimental part:
as §1, §2

For series [4] the following is noted: cited from earlier work.

Each structure is given as a SMILES string. Like-named read-outs stand apart in the source and are kept apart here.

Results on one molecule are retold here after US20220296515A1, “Vancomycin Liposome Compositions and Methods” (Nevakar Injectables Inc., priority 2019, published 2022).

On to `CN[C@H](CC(C)C)C(=O)N[C@H]1C(=O)N[C@@H](CC(N)=O)C(=O)N[C@H]2C(=O)N[C@H]3C(=O)N[C@H](C(=O)N[C@H](C(=O)O)c4cc(O)cc(O)c4-c4cc3ccc4O)[C@H](O)c3ccc(c(Cl)c3)Oc3cc2cc(c3O[C@@H]2O[C@H](CO)[C@@H](O)[C@H](O)[C@H]2O[C@H]2C[C@](C)(N)[C@H](O)[C@H](C)O2)Oc2ccc(cc2Cl)[C@H]1O` [Vancomycin], for which, in series [1], the Lambda z is 0.879. In addition, in series [1] (serum, iv), the total exposure AUC(0-inf) (as a rule, the area under the concentration-time curve extrapolated to infinity) amounted to 34800 ng·h/mL; the Cmax (in general, the maximum level reached in the sampled fluid or tissue) came to 34600 ng/mL; the time to peak (Tmax) (usually the time at which the peak concentration occurs) came out at 0 h; the half-life – broadly, the time in which the quantity being followed falls by half – is 48 min. Also, in the series on rats [2], the “urinary markers KIM-1, clusterin, osteopontin (OPN)” value is listed as “significant elevations of all markers”. The kidney histopathological findings result in the series with rats [3] is “significant proximal tubular cell injury and repair”. The half-life entry in series [4] (humans with normal renal function) was “three to six”. Also, the mean plasma concentration in series [4] (humans, multiple intravenous infusions of 1 gram over 60 minutes, 11 hours after end of infusion) is 8000 ng/mL. In addition, in series [4] (within 24 h after a single dose), the “recovered unchanged in urine” value was 80%-90.
